From patent publication US10251897B2, “GLUT4 endocytosis inhibitor” (NISHIZAKI BIOINFORMATION RESEARCH INSTITUTE, priority 2014, dated 2019)

How the values were obtained:
GLUT4 [1] = assay: GLUT4 mobilization monitoring (cellular membrane distribution of GLUT4, Western blotting with anti-c-myc antibody); type: cell-based
Procedure: FIG. 1 is a graph showing that DOPE has an action to increase cellular membrane distribution of GLUT4 in differentiated 3T3L1-GLUT4myc adipocytes. The cells were not treated with (Control), or treated with 1 μM of various phospholipid derivatives and, after 20 min, lysed, and separated into the cytoplasm (C) fraction and cellular membrane (M) fraction, after which Western blotting was performed using an anti-c-myc antibody. […] P value, ANOVA (Bonferroni adjustment). NS; not significant. DOPE; 1,2-dioleoyl-sn-glycero-3-phosphoethanolamine, DAPE; 1,2-diarachidonoyl-sn-glycero-3-phosphoethanolamine, DPPE; 1,2-dipalmitoleoyl-sn-glycero-3-phosphoethanolamine, DLPE; 1,2-dilinoleoyl-sn-glycero-3-phosphoethanolamine.
(§1) 3T3L1-GLUT4myc fibroblast strain expressing GLUT4myc was used. The cells are constructed by inserting human c-MYC epitope (14 amino acids) into the first ectodomain. […]
The protein concentration of each fraction was measured using BCA protein assay kit (Thermo Fisher Scientific, Waltham, Mass., USA). […] The immunoreactivity was detected using ECL kit (Invitrogen), and visualized using a chemical luminescence detection system (chemiluminescence detection system; GE Healthcare, Piscataway, N.J., USA). The signal density was measured using an image analysis software (Image Gauge software; GE Healthcare).

GLUT4 [2] = assay: GLUT4 internal transfer (uptake) assay after insulin pre-treatment; type: cell-based; conditions: insulin 100 nM 30 min then washed
Procedure: FIG. 2 is a graph showing that the GLUT4 cellular membrane distribution increasing action of DOPE derives from the suppression of GLUT4 endocytosis. 3T3L1-GLUT4myc adipocytes were treated with insulin (100 nM) for 30 min (−30-0 min), then washed to remove insulin (0 min), and DOPE (10 mM) was added to an extracellular solution. After incubation for 120 min, the cells were lysed, and separated into the cytoplasm (C) fraction and cellular membrane (M) fraction, after which Western blotting was performed using an anti-c-myc antibody. […] P value, ANOVA (Bonferroni adjustment). NS; not significant.
as §1
The protein concentration of each fraction was measured using BCA protein assay kit (Thermo Fisher Scientific, Waltham, Mass., USA). […] The immunoreactivity was detected using ECL kit (Invitrogen), and visualized using a chemical luminescence detection system (chemiluminescence detection system; GE Healthcare, Piscataway, N.J., USA). The signal density was measured using an image analysis software (Image Gauge software; GE Healthcare). […]

PKC isozymes = assay: Cell free PKC assay, PKC isozymes; type: biochemical; conditions: DOPE 100 μM, absence of TPA
Procedure: (§2) PKC activity was monitored in a cell-free system. (A) Given PKC isozyme was evaluated in the absence or presence of DOPE (100 μM). […] P value, compared to each PKC isozyme activation in the absence of DOPE, Dunnett's test. (B) The activity of PKCα was evaluated in the absence (control) or presence of DOPE (100 μM), in the absence or presence of TPA (1 μM). […] P value, Dunnett's test. TPA; 12-O-tetradecanoylphorbol-[…].
(§3) PKC activity in a cell-free system was quantified by the methods described in previous reports (Kanno T et al. J Lipid Res 2006; 47:1146-1156). In short, synthesized PKC substrate peptide (10 μM) was reacted with various PKC isozymes in a medium containing 20 mM Tris-HCl (pH 7.5), 5 mM magnesium acetate, 10 μM ATP, in the presence or absence of DOPE (100 μm), in the presence or absence of 1 μM TPA (12-O-tetradecanoylphorbol-13-acetate) at 30° C. for 5 min. […] They were applied on reversed-phase HPLC (LC-10ATvp, Shimadzu Co., Kyoto, Japan), and the peak of substrate peptide and the peak of a new resultant product were measured by the absorbance at 214 nm. The areas of unphosphorylated PKC substrate peptide and phosphorylated PKC substrate peptide were measured (total area corresponds to the concentration of PKC substrate peptide used in this Example), and the amount of the phosphorylated substrate peptide was calculated. […]

Glucose tolerance test = type: in vivo, C57BL/KsJ-lepr^db/lepr^db mouse; conditions: type 2 diabetes model mouse, DOPE 0.1, 1, 10 mg/kg oral 30 min before glucose 2 g/kg; 30, 60, 90 min
Procedure: FIG. 6 is a graph showing that DOPE decreases the serum glucose level in C57BL/KsJ-lepr^db/lepr^db mouse. The mouse was placed in glucose starvation for 12 hr, glucose (2 g/kg) was orally administered, the blood was recovered at a given time and serum glucose assay was performed. DOPE was orally administered at a given concentration (0-10 mg/kg) 30 min before administration of glucose. […] P value, Fisher's PLSD (Protected Least Significant Difference test).
C57BL/KsJ-lepr^db/lepr^db mouse (female, 8-week-old) (CLEA Japan; Tokyo, Japan) was used. Glucose tolerance test was performed using the mouse starved for 12 hr. Glucose (2 g/ml/kg body weight) was administered by gavage, and the time point thereof was taken as 0 h. DOPE (0, 0.1, 1, 10 mg/kg) was orally administered 30 min before administration of glucose. Brine was used for DOPE (0 mg/kg). The blood (10 μl) was collected from the tail vein at the time points of 30, 60, and 90 min, and each plasma sample which was labeled with 4-aminobenzyl ethyl ester (ABEE) and prepared from the obtained blood was loaded on high performance liquid chromatography (HPLC) system (LC-10ATvp; Shimadzu Co., Kyoto, Japan). The glucose concentration was calculated from a peak area/concentration analytical curve prepared using the standard glucose solution.

PKCα = PKCα (Homo sapiens, UniProt P17252); assay: Cell free PKC assay, PKCα activated by TPA; type: biochemical; conditions: DOPE 100 μM, TPA 1 μM
Procedure: as §2, §3

CCCCCCCC/C=C\CCCCCCCC(=O)OC[C@H](COP(=O)(O)OCCN)OC(=O)CCCCCCC/C=C\CCCCCCCC [DOPE, 1,2-Dioleoyl-sn-glycerol-3-phosphoethanolamine]
distribution of GLUT4 in cellular membrane (c-myc signal in cellular membrane fraction / total cells) (GLUT4 [1]; differentiated 3T3L1-GLUT4myc adipocytes, 1 μM phospholipid derivative, 20 min, vs Control): significantly increased | endocytosis of GLUT4 transported onto the cellular membrane by insulin stimulation (GLUT4 [2]; 3T3L1-GLUT4myc adipocytes): suppressed | PKC activation (PKC isozyme activity, pmol/min) (PKC isozymes): not involved in PKC activation | blood glucose level (Glucose tolerance test): decrease blood glucose level of type 2 diabetes model mouse in a dose dependent manner | PKCα activity activated by TPA (PKCα): suppress PKCα activated by TPA

PKCα siRNA: siRNA for PKCα, SEQ ID NO: 1 and 2, purchased from Ambion (chain 1 GAACGUGCAUGAGGUGAAATT; chain 2 UUUCACCUCAUGCACGUUCTT; chemistry not given here) [reference compound]
GLUT4 distribution on the cellular membrane (GLUT4 [1]; 3T3L1-GLUT4myc adipocytes 48 hr after siRNA transfection, vs NC siRNA): significantly increased | decrease of GLUT4 on the cellular membrane by endocytosis after insulin stimulation (GLUT4 [2]; siRNA-transfected 3T3L1-GLUT4myc adipocytes, 120 min): the decrease was suppressed
